Results as given in patent US11760752B2, “Carboxylic acid, acyl sulfonamide and acyl sulfamide-derivatized bicyclic aza-heteroaromatics as selective Mcl-1 inhibitors and as dual Mcl-1/Bcl-2 inhibitors” (University of Maryland, Baltimore, priority 2019, dated 2023).
Where two headings read alike, the source gives them in different places.

Legend:
BCL-2 = BCL-2 (Homo sapiens (Human), UniProt P10415); test: Fluorescence polarization competition assay (FPCA), displacement of FITC-Bak from BCL-2; format: binding
Procedure: (§1) These values were determined from a fluorescence polarization competition assay involving a fluorescently labeled peptide (BAK) bound to the desired Bcl-2 anti-apoptotic protein. […] These inhibition constants are the concentrations at which the indazole derivatives can displace 50% of BAK from the indicated Bcl-2 anti-apoptotic proteins.
(§2) The concentrated peptide stocks were prepared in DMSO and the concentration of the peptide was determined in water at pH 8.0 using the extinction coefficient for amide-linked FITC of λ494=68,000 cm^−1M^−1.
(§3) The fluorescence polarization assays were performed in 96 well polypropylene F-bottom black microplates (Greiner Bio-One) with a final volume of 100 μL.
(§4) The fluorescence polarization competition assays were setup using a Biomek FXP Automated Liquid Handling System. […] The IC50 values were then converted to Ki values using an equation derived by Nikolovska-Coleska et al. All inhibitors were tested in triplicate.

BCL-XL [1] = target: T1, BCL-XL (Homo sapiens (Human), UniProt Q07817); test: Fluorescence polarization competition assay (FPCA), displacement of FITC-Bak from BCL-XL; format: binding
Procedure: as §1, §2, §3, §4
Target sequence in this assay (Q07817 1-212): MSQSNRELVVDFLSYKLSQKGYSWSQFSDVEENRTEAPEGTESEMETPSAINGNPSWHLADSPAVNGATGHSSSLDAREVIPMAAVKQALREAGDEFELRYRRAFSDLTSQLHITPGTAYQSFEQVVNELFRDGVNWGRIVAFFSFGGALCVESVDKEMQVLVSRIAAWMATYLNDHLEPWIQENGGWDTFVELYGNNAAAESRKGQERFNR

MCL-1 = MCL-1 (Homo sapiens (Human), UniProt Q07820); test: Fluorescence polarization competition assay (FPCA), displacement of FITC-Bak from MCL-1; format: binding
BCL-XL [2] = target: T1, BCL-XL; settings: relative to BCL-2; cited from earlier work
Target sequence in this assay (Q07817 whole entry, species assumed): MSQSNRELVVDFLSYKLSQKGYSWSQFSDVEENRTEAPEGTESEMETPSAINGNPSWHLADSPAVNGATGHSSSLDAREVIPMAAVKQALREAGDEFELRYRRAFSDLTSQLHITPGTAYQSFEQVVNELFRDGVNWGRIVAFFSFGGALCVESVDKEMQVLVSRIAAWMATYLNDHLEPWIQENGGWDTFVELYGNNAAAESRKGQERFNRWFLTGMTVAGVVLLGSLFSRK

[3] = Table 3, FITC-Bak peptide displacement, read-out: MCL-1 Affinity Ki
[4] = Table 3, FITC-Bak peptide displacement, read-out: BCL-2 Affinity Ki
[5] = Table 3, FITC-Bak peptide displacement, read-out: BCL-XL Affinity Ki
[6] = Table 5, heterocyclic core SAR, read-out: MCL-1 Ki
[7] = Table 8, N-1-alkylated isomers, read-out: BCL-2 Ki

MCL-1, sequence (Q07820 172-327): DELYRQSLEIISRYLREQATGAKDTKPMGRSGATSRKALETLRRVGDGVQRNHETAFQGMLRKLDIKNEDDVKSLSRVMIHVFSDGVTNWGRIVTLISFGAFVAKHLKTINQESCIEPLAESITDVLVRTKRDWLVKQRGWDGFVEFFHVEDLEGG
BCL-2, sequence (P10415 1-211): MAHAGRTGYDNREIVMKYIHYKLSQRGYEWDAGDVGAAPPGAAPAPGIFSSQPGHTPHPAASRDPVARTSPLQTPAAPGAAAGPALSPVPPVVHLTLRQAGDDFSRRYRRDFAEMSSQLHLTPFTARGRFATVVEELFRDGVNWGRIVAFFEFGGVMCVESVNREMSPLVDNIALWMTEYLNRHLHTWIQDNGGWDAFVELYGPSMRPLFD

| Compound | Ki (MCL-1; [3]) [nM] | Ki (BCL-2; [4]) [nM] | Ki (BCL-XL [1]; [5]) [nM] | other results |
| --- | --- | --- | --- | --- |
| Cc1cc(OCCCc2c(C(=O)O)n(C)c3cc(Cl)ccc23)cc(C)c1Cl | – | – | – | Ki (BCL-2; Table 4, FPCA data for control compounds, read-out: BCL-2 Ki): > 10000 nM; Ki (BCL-XL [1]; Table 4, FPCA data for control compounds, read-out: BCL-XL Ki): 1200 ± 160 nM |
| Cc1cc(OCCCn2nc(C(=O)O)c3cc(Cl)ccc32)cc(C)c1Cl [BD-3-173] | 5800 ± 360 | – | – | Ki (BCL-2; read-out: BCL-2 Affinity Ki): 5790 ± 620 nM |
| Cc1cc(OCCCn2nc(C(=O)NS(=O)(=O)c3ccc(NCc4ccco4)c([N+](=O)[O-])c3)c3cc(Cl)ccc32)cc(C)c1Cl [BD-3-180] | 480 ± 30 | 572 ± 50 | 597 ± 180 | – |
| Cc1cc(OCCCn2nc(C(=O)NS(=O)(=O)c3ccc(NCc4cccnc4)c([N+](=O)[O-])c3)c3cc(Cl)ccc32)cc(C)c1Cl [BD-3-181] | 840 ± 50 | 694 ± 90 | 574 ± 110 | – |
| Cc1cc(OCCCn2nc(C(=O)NS(=O)(=O)c3ccc(N4CCOCC4)c([N+](=O)[O-])c3)c3cc(Cl)ccc32)cc(C)c1Cl [BD-3-183] | 920 ± 30 | 868 ± 130 | 1060 ± 340 | – |
| Cc1cc(OCCCn2nc(C(=O)NS(=O)(=O)c3ccc(NCC4CCCO4)c([N+](=O)[O-])c3)c3cc(Cl)ccc32)cc(C)c1Cl (stereo not drawn) [BD-3-184] | 690 ± 30 | 1170 ± 160 | 840 ± 140 | – |
| Cc1cc(OCCCn2nc(C(=O)NS(=O)(=O)c3ccc(NCC4CCN(C)CC4)c([N+](=O)[O-])c3)c3cc(Cl)ccc32)cc(C)c1Cl [BD-3-190] | – | – | – | Ki (BCL-2; read-out: BCL-2 Affinity Ki): 8930 ± 290 nM |
| Cc1cc(Oc2ccc(Cn3nc(C(=O)NS(=O)(=O)c4ccc([N+](=O)[O-])c(N5CCOCC5)c4)c4cc(Cl)ccc43)cc2)cc(C)c1Cl [CG-1-016] | 370 ± 20 | 451 ± 40 | 436 ± 70 | – |
| Cc1cc(Oc2ccc(Cn3nc(C(=O)NS(=O)(=O)c4ccc([N+](=O)[O-])c(NCc5cccnc5)c4)c4cc(Cl)ccc43)cc2)cc(C)c1Cl [CG-1-018] | 480 ± 30 | 384 ± 30 | 436 ± 70 | – |
| Cc1cc(Oc2ccc(Cn3nc(C(=O)NS(=O)(=O)c4ccc([N+](=O)[O-])c(NCc5ccco5)c4)c4cc(Cl)ccc43)cc2)cc(C)c1Cl [CG-1-019] | 1140 ± 50 | 384 ± 30 | 325 ± 50 | – |
| CCN1CCN(c2cc(S(=O)(=O)NC(=O)c3nn(Cc4ccc(Oc5cc(C)c(Cl)c(C)c5)cc4)c4ccc(Cl)cc34)ccc2[N+](=O)[O-])CC1 [CG-1-023] | 12400 ± 370 | – | – | Ki (BCL-2; read-out: BCL-2 Affinity Ki): 74300 ± 11500 nM |
| Cc1cc(Oc2ccc(Cn3nc(C(=O)O)c4cc(Cl)ccc43)cc2)cc(C)c1Cl [NB-1-070] | 910 ± 50 | – | – | Ki (BCL-2; read-out: BCL-2 Affinity Ki): 1040 ± 190 nM; Ki (BCL-XL [1]; read-out: BCL-XL Affinity Ki): 2010 ± 350 nM |
| Cc1cc(Oc2ccc(Cn3nc(C(=O)NS(=O)(=O)c4ccc(Cl)cc4)c4cc(Cl)ccc43)cc2)cc(C)c1Cl [NB-1-084] | 280 ± 10 | 1090 ± 450 | 840 ± 228 | – |
| Cc1cc(Oc2ccc(Cn3nc(C(=O)NS(=O)(=O)c4ccc(N5CCOCC5)c([N+](=O)[O-])c4)c4cc(Cl)ccc43)cc2)cc(C)c1Cl [NB-1-086] | 320 ± 10 | – | – | Ki (BCL-2; read-out: BCL-2 Affinity Ki): 569 ± 40 nM; Ki (BCL-XL [1]; read-out: BCL-XL Affinity Ki): 840 ± 228 nM |
| Cc1cc(Oc2ccc(Cn3nc(C(=O)NS(=O)(=O)c4ccc(NCc5cccnc5)c([N+](=O)[O-])c4)c4cc(Cl)ccc43)cc2)cc(C)c1Cl [NB-1-087] | 520 ± 30 | – | – | Ki (BCL-2; read-out: BCL-2 Affinity Ki): 611 ± 200 nM; Ki (BCL-XL [1]; read-out: BCL-XL Affinity Ki): 557 ± 80 nM |
| Cc1cc(Oc2ccc(Cn3nc(C(=O)NS(=O)(=O)c4ccc(NCCN5CCOCC5)c([N+](=O)[O-])c4)c4cc(Cl)ccc43)cc2)cc(C)c1Cl [NB-1-088] | 750 ± 60 | – | – | Ki (BCL-2; read-out: BCL-2 Affinity Ki): 738 ± 190 nM |
| Cc1cc(Oc2ccc(Cn3nc(C(=O)NS(=O)(=O)c4ccc(NCc5ccco5)c([N+](=O)[O-])c4)c4cc(Cl)ccc43)cc2)cc(C)c1Cl [NB-1-089] | 260 ± 10 | 266 ± 20 | 551 ± 70 | – |
| Cc1cc(OCCCn2c(C(=O)O)nc3ccccc32)cc(C)c1Cl [compound 5, 1-(3-(4-chloro-3,5-dimethylphenoxy)propyl)-1H-benzo[d]imidazole-2-carboxylic acid] | – | – | – | Ki (MCL-1; [6]): > 10000 nM; Ki (MCL-1; read-out: MCL-1 Ki): > 10000 nM |
| Cc1cc(OCCCn2nc3ccc(Cl)cc3c2C(=O)O)cc(C)c1Cl [compound 10, 5-chloro-2-(3-(4-chloro-3,5-dimethylphenoxy)propyl)-2H-indazole-3-carboxylic acid] | – | – | – | Ki (MCL-1; [6]): > 10000 nM; Ki (MCL-1; read-out: MCL-1 Ki): > 10000 nM |
| Cc1cc(OCCn2nc3ccc(Cl)cc3c2C(=O)O)cc(C)c1Cl [compound 11, 5-chloro-2-(2-(4-chloro-3,5-dimethylphenoxy)ethyl)-2H-indazole-3-carboxylic acid] | – | – | – | Ki (MCL-1; [6]): > 10000 nM; Ki (MCL-1; read-out: MCL-1 Ki): > 10000 nM |
| Cc1cc(Oc2ccc(Cn3nc4ccc(Cl)cc4c3C(=O)O)cc2)cc(C)c1Cl [compound 12, 5-chloro-2-(4-(4-chloro-3,5-dimethylphenoxy)benzyl)-2H-indazole-3-carboxylic acid] | – | – | – | Ki (MCL-1; [6]): 2360 ± 290 nM; Ki (MCL-1; read-out: MCL-1 Ki): 2360 ± 290 nM; Ki (BCL-2; read-out: BCL-2 Ki): 1450 ± 75 nM |
| Cc1cc(Oc2ccc(Cn3nc4cc(Cl)ccc4c3C(=O)O)cc2)cc(C)c1Cl [compound 49, 6-chloro-2-(4-(4-chloro-3,5-dimethylphenoxy)benzyl)-2H-indazole-3-carboxylic acid] | – | – | – | Ki (MCL-1; [6]): 1760 ± 550 nM; Ki (MCL-1; read-out: MCL-1 Ki): 1760 ± 550 nM |
| Cc1cc(Oc2ccc(Cn3nc(C(=O)O)c4cc(Cl)ccc43)cc2)cc(C)c1Cl [compound 50, 5-chloro-1-(4-(4-chloro-3,5-dimethylphenoxy)benzyl)-1H-indazole-3-carboxylic acid] | – | – | – | Ki (MCL-1; Table 8, N-1-alkylated isomers, read-out: MCL-1 Ki): 1580 ± 360 nM |
| Cc1cc(Oc2ccc(Cn3nc(C(=O)NS(=O)(=O)c4ccc(N5CCOCC5)c([N+](=O)[O-])c4)c4cc(Cl)ccc43)cc2)cc(C)c1Cl [compound 51, 5-chloro-1-(4-(4-chloro-3,5-dimethylphenoxy)benzyl)-N-((4-morpholino-3-nitrophenyl)sulfonyl)-1H-indazole-3-carboxamide] | – | – | – | Ki (MCL-1): 2220 ± 200 nM; BCL-2 binding affinity (in words) (BCL-2): within the nanomolar range; Ki (BCL-2; [7]): 620 ± 120 nM; BCL-XL affinity (in words) (BCL-XL [1]): no affinity |
| Cc1cc(Oc2ccc(Cn3nc(C(=O)NS(=O)(=O)c4ccc(NCc5cccnc5)c([N+](=O)[O-])c4)c4cc(Cl)ccc43)cc2)cc(C)c1Cl [compound 52, 5-chloro-1-(4-(4-chloro-3,5-dimethylphenoxy)benzyl)-N-((3-nitro-4-((pyridin-3-ylmethyl)amino)phenyl)sulfonyl)-1H-indazole-3-carboxamide] | – | – | – | Ki (MCL-1): > 10000 nM; BCL-2 binding affinity (in words) (BCL-2): within the nanomolar range; Ki (BCL-2; [7]): 690 ± 110 nM; BCL-XL affinity (in words) (BCL-XL [1]): no affinity |
| CC1(C)CCC(CN2CCN(c3ccc(C(=O)NS(=O)(=O)c4ccc(NCC5CCOCC5)c([N+](=O)[O-])c4)c(Oc4cnc5[nH]ccc5c4)c3)CC2)=C(c2ccc(Cl)cc2)C1 [venetoclax, Venetoclax] | – | – | – | BCL-XL affinity, fold lower than BCL-2 (BCL-XL [2]): more than 100 fold |
